Experimental data reported in patent publication US20260263468A1 (Fundación Instituto de Investigación Sanitaria Fundación …, priority 2023, published 2026).
Where “and” joins values, the source holds several entries; their conditions need not be identical. Equal entries are not always repeated.

How the values were obtained:
C2C12 [1] = assay: AMPK phosphorylation assay kit (short time points); assay type: cell-based; details: myoblast, 1 μM, 10 min after switching to 2% HS; control 1.97±0.17
Description: Assay was performed with the AMPK phosphorilation assay kit (Abnova Corporation, Jhouzih St, Taiwan) as manufactor instructions and pAMPK was measured at λex/em 530/585 nm and 360/450 nm for total protein with Tecan Infinite.

C2C12 [2] = assay: Nucleotide concentration by HPLC during C2C12 differentiation; assay type: cell-based
Description: Supernatant and cell lysate are collected every day. Cells were lysated with a homemade buffer (1 mM phenylmethylsulfonyl fluoride, 1 mM protease inhibitor cocktail, 1 mM sodium orthovanadate, 1 mM sodium fluoride and 1 mM β-glicerophospate) and supernatant was used directly. A heat shock step was done at 98° C. for 2 min, and to avoid adenosine degradation 1 μM EHNA was added at the time of heating. All samples were centrifuged at 13000 g for 10 min at 4° C. and supernatants were collected and stored at −80° C. until use. Inosine, adenosine, AMP, ADP and ATP concentrations were determined with high performance liquid chromatography (HPLC) using a liquid chromatograph with a reversed phase column (Agilent 1100 Series Liquid Chromatography) and an UV detector set at 254 nm. Buffer composed of 0.1 mol/L KH2PO4 (pH 7.5) and 18% acetonitrile was run at 1.5 ml/min for 20 min. Compounds were identified and quantified by their retention times and peak areas of known standards, calibrated by spectrophotometry. […] The results have been corrected and expressed as mean±SEM. All results were calculated as a percentage of controls without differentiation state.

C2C12 [3] = assay: Western blot of myogenesis markers during differentiation; assay type: cell-based
Description: (§1) Cells were lysed with RIPA buffer and protein concentration was determined by BCA. […] Variations in intensity were expressed as % of basal (day 0) and expressed as mean±SEM. All results were calculated as a percentage of non-differentiated controls to minimize the intrinsic variation among different experiments.

[4] = mice, tenofovir 75 mg/Kg/day; cited from earlier work
C2C12 [5] = assay: cAMP concentration (ELISA); assay type: cell-based; details: myoblast, 1 μM, 5 minutes; control 0.58±0.13
Description: CAMP concentration was measured using the colorimetric cAMP ELISA kit following manufacture protocol for acetylated cell lysates (Cell Biolabs, San Diego, USA). Absorbance was measured at 450 nm using a microplate reader Tecan Spark 20M.
The CAMP signaling cascade has been linked to a delay in the onset of age-related muscle loss.

C2C12 [6] = assay: Western blot of adenosine receptors, P2X7 and Panx-1 during differentiation; assay type: cell-based
Description: as §1
The expression of adenosine receptors, P2X7 receptor and Panx-1 channel was analyzed during myoblast differentiation.

C2C12 cells = assay: Cell proliferation assay (AlamarBlue); assay type: cell-based; details: 24 h after 2% HS addition, control 100±7.3%
Description: C2C12 cells (American Type Culture Collection, ATCC, Manassas, VA, USA) were cultured in DMEM supplemented with 10% FBS and 1% penicillin-streptomycin. To induce myogenic differentiation, 70% confluence C2C12 cells were culture in DMEM containing 2% HS (horse serum). Cells were maintained in a humidified chamber at 37° C., in 95% air and 5% CO2. Media was replaced with fresh every 48h.
C2C12 cells were plated in 96-well plates (Corning, Cultek, Spain) (12.500 cells/well). Cell proliferation was measured using AlamarBlue assay according to the manufacturer's instructions, at 24 and 48 h of myogenic differentiation.

C2C12 [7] = assay: Western blot of PKA isoforms, pCREB, EPAC1/2; assay type: cell-based
Description: as §1
To study the CAMP signaling pathway, we analyzed the expression of PKA on its three catalytic isoforms PKAα, PKAβ and PKAγ as well as EPAC1/2. […] Tenofovir reduced its phosphorylation (154±9% tenofovir vs 247±30% control at day 4, p<0.05, FIG. 3B).

C2C12 [8] = assay: Western blot of phosphorylated AMPK; assay type: cell-based; details: 1 μM, day 4, vs basal
Description: as §1
We next studied if these changes in AMP/ATP ratio had any effect in AMPK activation.

C2C12 myoblast cell line = assay: Western blot of C2C12 under pro-inflammatory conditions with/without dipyridamole; details: for PAX7 expression (vs 100% basal): IL-6 2.5 μg/ml, INFγ 1 μg/ml or LPS 10 μg/ml ± dipyridamole 1 μM, control 64.7±5%; for PAX7 expression (vs 100% basal) / AMPK activation / CREB activation / MHC expression (vs 100% basal) / PKAα expression: day 4; for A2BR expression / AMPK activation / CREB activation / MHC expression (vs 100% basal): cytokine/LPS ± dipyridamole 1 μM; for AMPK activation: control 222.7±23.9%; for CREB activation: control 353.7±45.15%; for MHC expression (vs 100% basal): control 757.6±85.7%; for PKAα expression: control 213.9±21.6%
Description: Western blot was performed as described above.
Protein concentration was determined by BCA. 4 μg for cells and 40-50 μg for tissue samples of protein was subjected to 6-15% SDS-PAGE and transferred to a nitrocellulose membrane. Membranes were blocked with 3% BSA in Tris-buffered saline containing 0.1% Tween-20 (TBS-T). After that, the membranes were incubated overnight at 4° C. with the primary antibodies for A2A, A2B, MHC (Thermo Fisher Scientific, Waltham, USA), AMPK, pAMPK (Thr172), p21, p16 (Cell signaling, Danvers, EEUU) (1:1000 each) and Pax-7 (Developmental Studies Hybridoma Bank, Houston, EEUU) (1:500 each).

C2C12 myobundles = assay: C2C12 3D myobundle with IL-6 ± dipyridamole; assay type: cell-based; details: IL-6 2.5 μg/ml ± dipyridamole 1 μM, 14 days; Sham 890±39
Excerpt: C2C12 myobundles were fabricated following the protocol described by Bursac group (see references in ref. 44). Briefly, molds of polydimethylsiloxane (PDMS) designed for 12-well plates were created from Teflon masters with semicylindrical wells. These molds were sterilized, coated with 0.2% (w/v) Pluronic F-127 (Invitrogen) to prevent tissue adhesion, and paired with laser-cut Cerex frames (9×9 mm^2, 1-mm-wide rim) for myobundle attachment. The frames served as an anchor and guide during hydrogel compaction, ensuring uniaxial cell alignment. C2C12 cells were encapsulated in a hydrogel solution, including bovine fibrinogen (Sigma-Aldrich), matrigel (Corning), bovine thrombin (Sigma-Aldrich), and growth medium as concentration of bursac group indicates Referencias. The cell/hydrogel mixture was polymerized in the PDMS molds, and myobundles were cultured in a humidified chamber at 37° C., in 95% air and 5% CO2. After 4 days, the frames with myobundles were suspended in DM with treatments. DM and treatments are replaced every two days. GM and DM media contained 6-aminocaproic acid to reduce fibrinolysis. […] After the 14 days of treatment a bright-field photograph was taken to analyze the thickness of the fiber at its midpoint, and subsequently, they were embedded in OCT medium. […]

C[C@H](Cn1cnc2c(N)ncnc21)OCP(=O)(O)O [tenofovir]
AMPK activation (C2C12 [1]): 1.02±0.19 | Intracellular ATP (C2C12 [2]; 1 μM each, day 1, control 4.93±0.02): 11.56 ± 0.26 nM and 11.74 ± 0.08 nM | Intracellular AMP/ATP ratio (C2C12 [2]; 1 μM each, day 3, control 1.88±0.12): 0.62±0.03 | Extracellular ATP (C2C12 [2]; 1 μM each, day 4, control 14.7±0.5): 10.67 ± 0.28 nM | Intracellular adenosine (C2C12 [2]; 1 μM, day 4, control 10.87±0.73): did not change | Intracellular inosine (C2C12 [2]; 1 μM, day 4, control 11.07±0.54): did not modulate | Intracellular AMP (C2C12 [2]; 1 μM, day 4, control 12.10±0.73): 6.33 ± 0.35 nM | Extracellular adenosine (C2C12 [2]; 1 μM, day 4 of differentiation, control 11.6±0.81): 6.65 ± 0.54 nM | MHC protein expression (% of basal) (C2C12 [3]; 1 μM each, day 1): 1429±379% and 1153±131% | PAX7 protein expression (% of basal) (C2C12 [3]; 1 μM, day 1, control 315±58%): 101±23% | MyoD protein expression (% of basal) (C2C12 [3]; 1 μM, day 2, control 182±8%): 389±33% | Myf5 protein expression (% of basal) (C2C12 [3]; 1 μM, first 2 days of differentiation): 142±23% | Body weight lost [4]: ~10% | cAMP levels (C2C12 [5]): 0.24±0.07 | Adenosine A2B receptor protein expression (% of basal) (C2C12 [6]; 1 μM each, day 4): 553±47% | A3 receptor protein expression (C2C12 [6]; 1 μM, compared to control): did not change | P2X7 protein expression (% of basal) (C2C12 [6]; 1 μM, day 4): 89±19% | Proliferation compared to control (C2C12 cells; 1 μM): 63.3±5% | Proliferation compared to control (C2C12 cells; 10 μM): 62.8±6.4% | PKAα protein expression (% of basal) (C2C12 [7]; 1 μM each, day 4, control 292±65%): 215±90% and 215.8±94.2% | pCREB (% of basal) (C2C12 [7]; 1 μM, day 4, control 247±30%): 154±9% | EPAC2 protein expression (C2C12 [7]; 1 μM, within differentiation): maintained the expression similar to basal levels | pAMPK (Western blot) (C2C12 [8]): 1.15±0.05

B1: IL-6: pro-inflammatory cytokine used at 2.5 μg/ml on C2C12 (protein, UniProt P08505 25-211, looked up)
Interleukin-6: FPTSQVRRGDFTEDTTPNRPVYTTSQVGGLITHVLWEIVEMRKELCNGNSDCMNNDDALAENNLKLPEIQRNDGCYQTGYNQEICLLKISSGLLEYHSYLEYMKNNLKDNKKDKARVLQRDTETLIHIFNQEVKDLHKIVLPTPISNALLTDKLESQKEWLRTKTIQFILKSLEEFLKVTLRSTRQT
PAX7 expression (vs 100% basal) (C2C12 myoblast cell line): 121±8% | A2BR expression (C2C12 myoblast cell line; 24 h, control 112.9±4.7%): 75.8±2.2% | A2BR expression (C2C12 myoblast cell line; 4 days, control 172.7±12.6%): 67.6±3% | AMPK activation (C2C12 myoblast cell line): 80.9±5.8% | CREB activation (C2C12 myoblast cell line): 163.4±19.26% | MHC expression (vs 100% basal) (C2C12 myoblast cell line): 127.7±15.8% | PKAα expression (C2C12 myoblast cell line): 107±5.8% | Myobundle thickness (C2C12 myobundles): 616.3±22.9 μm

B2: INFγ: pro-inflammatory cytokine used at 1 μg/ml on C2C12 (protein, UniProt P01580 23-155, looked up)
Interferon gamma: HGTVIESLESLNNYFNSSGIDVEEKSLFLDIWRNWQKDGDMKILQSQIISFYLRLFEVLKDNQAISNNISVIESHLITTFFSNSKAKKDAFMSIAKFEVNNPQVQRQAFNELIRVVHQLLPESSLRKRKRSRC
PAX7 expression (vs 100% basal) (C2C12 myoblast cell line): 114±11% | A2BR expression (C2C12 myoblast cell line; 24 h, control 112.9±4.7%): 69.3±1.9% | A2BR expression (C2C12 myoblast cell line; 4 days, control 172.7±12.6%): 66.03±20.3% | AMPK activation (C2C12 myoblast cell line): 80.4±6.1% | CREB activation (C2C12 myoblast cell line): 176.7±27.8% | MHC expression (vs 100% basal) (C2C12 myoblast cell line): 123.1±20.3% | PKAα expression (C2C12 myoblast cell line): 101.7±3.7%
